Like-named read-outs stand apart in the source and are kept apart here.
Legend:
[1] = system: C57BL/6 mice demyelinated with cuprizone; experiment: In vivo mouse cuprizone assay (new myelin, MBP positive / MOG negative area); settings: for effect measured as new myelin generated in response to compound treatment compared to control with no added compound: Regimen A (QD or BID for 14 days via oral gavage), various doses; for effect (new myelin generated compared to control): Regimen A, oral gavage
Text: Assays for Detecting and Measuring Remyelination Properties of Compounds In Vivo Mouse Cuprizone Assay:
Cuprizone Feeding Protocol:
2 month old female C57BL/6 mice (Stock Number: 000664) were purchased from Jackson Labs and fed for 4-10 months with a 0.2% cuprizone chow (provided by Research Diets, Product # D10020701R, Description AIN-76A Rodent Diet with 0.2% cuprizone) using cuprizone purchased from Sigma (Cat #14690-100G). Chow was provided ad libitum, and refreshed every 4 days to ensure stability of the cuprizone. Mice were maintained on this diet for 4-10 months before initiation of the experiments.
1) 24 hours prior to the start of dosing, 6 to 10 mice were switched from cuprizone chow to normal chow (Picolab rodent diet 20 EXT IRR 5053, irradiated) without added cuprizone. These mice were maintained on normal chow throughout the course of dosing.
2) 6 to 10 mice per group were randomized into new cages such that mice that were housed in one cage during the cuprizone diet were not housed together in one dose group during the study.
3) Mice were dosed with compound in one of two regimens: Regimen A: mice were dosed QD or BID for 14 days via oral gavage. Regimen B: mice were dosed QD or BID for 14 days via IP injection. However, other dosing schedules and/or routes of administration may also be used.
4) On the last day of dosing, dried blood spots were collected at multiple time points following the last dose. Often this was 30 minutes, 2, 6 and 24 hours following the final dose on day 14 via the tail vein.
Perfusion and Sectioning:
1) The day after the last day of dosing, mice were transcardially perfused with 12 ml of PBS (Sigma, P4417) followed by 20 ml of 3.2% paraformaldehyde in PBS (Electron Microscopy Sciences #15714-S). The brains were removed via standard dissection techniques and each was postfixed in 3.2% paraformaldehyde (20 ml) for 24-48 hours at room temperature in sealed scintillation vials.
2) Serial 50 micron sections were collected through the anterior posterior extent of the brain, from just behind the olfactory bulb, through visual cortex using a vibrating microtome, the V-STAR (described in International Publication No. WO 2013/012799 and U.S. Pat. No. 8,967,024 both of which are incorporated herein by reference in their entirety). Sections were collected in phosphate buffered saline (PBS). Vibratome speed was set to 1.1 mm/s and amplitude was set to 0.8 mm.
3) A series of every 24th section was removed for staining yielding 5 sections per brain.
1) Tissue sections were stained using an automated system for processing blots (hereinafter the “blotinator”) (described in WO2011/087646 and U.S. Pat. Nos. 8,337,754 and 8,679,406 each of which is incorporated herein by reference in its entirety). Brain sections were placed in the blotinator plate and bathed in PBS. The blotinator applied primary antibodies (MOG and MBP together) and Hoechst nuclear stain for 12 hours at room temperature with constant shaking.
The following stains were diluted in blocking buffer (described below):
Hoechst nuclear stain (0.5 mg/ml)(bisBenzimide H 33342 trihydrochloride Sigma #33342).
Myelin basic Protein (MBP) antibody (Abcam Cat # ab7349) was diluted at a 1:750 ratio in blocking buffer).
Myelin Oligodendrocyte Glycoprotein (MOG) (R&D systems Cat # AF2439) was diluted at a 1:250 ratio in blocking buffer.
Antibodies were diluted in blocking buffer, which consisted of 0.3% Triton X-100 (Sigma Cat #234729), 0.02% Sodium Azide (Sigma Cat # S2002) and 8% fetal bovine serum in PBS (Sigma Cat # F2442).
2) The blotinator washed the samples 4 times for 5 minutes each with a wash buffer (0.2% Triton X-100 in PBS).
3) The blotinator applied secondary antibodies diluted in blocking buffer and incubated them for 2 hours with constant shaking.
Alexa 488 donkey anti-rat secondary (Life technologies Cat # A-21208) was diluted at 1:1000 in blocking buffer. […]

[2] = system: primary rat mixed cortical cells; experiment: In vitro myelination assay (MBP positive myelin strands, fold myelin pixels above background); format: cell-based; settings: Rattus norvegicus, relative to baseline of no added compound; for fold induction at 1 µM: 1.0 μM compound; for fold induction at 10 µM: 10.0 μM compound
How it was run: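 Mixed cortical culture, P1 rat, 87,500-95,000 cells/well; compound present from seeding, refreshed days 6 and 10; 14 d, 37 °C, 5% CO2. Day 14: PFA fix, anti-MBP + Hoechst. Read-out: fold MBP myelin pixels over untreated, tested at 1.0 and 10.0 μM.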

[3] = read-out: Fold myelin pixels above background, 1.0 μM
[4] = read-out: Fold myelin pixels above background, 10.0 μM
[5] = read-out: Fold myelin pixels above background

SMILES	effect measured as new myelin generated in response to compound treatment compared to control with no added compound [1]	effect (new myelin generated compared to control) ([1]; 30 mpk)	fold induction at 1 µM [2, 3]	fold induction at 10 µM [2, 4]	fold induction at 1 µM [2, 5]	fold induction at 10 µM [2, 5]	also measured
CCc1cc(Nc2ncn(-c3cc(F)cc(F)c3)n2)cc(N2CCN(C3COC3)CC2)c1 [Compound 107, 1-(3,5-difluorophenyl)-N-[3-ethyl-5-[4-(oxetan-3-yl)piperazin-1-yl]phenyl]-1,2,4-triazol-3-amine]	positive effect	positive effect	1000 to 10000	1000 to 10000			effect (new myelin generated compared to control) ([1]; 90 mpk): positive effect
Fc1ccc(-n2cnc(Nc3cc(C(F)F)cc(N4CCN(C5COC5)CC4)n3)n2)cc1F [Compound 524, 4-(difluoromethyl)-N-[1-(3,4-difluorophenyl)-1,2,4-triazol-3-yl]-6-[4-(oxetan-3-yl)piperazin-1-yl]pyridin-2-amine]	positive effect	positive effect			100 to 1000	100 to 1000	effect (new myelin generated compared to control) ([1]; 10 mpk): positive effect; effect (new myelin generated compared to control) ([1]; 20 mpk): positive effect
Cc1cc(Nc2ncn(-c3cc(F)cc(F)c3)n2)nc(N2CCN(C3COC3)CC2)c1 [Compound 331, N-[1-(3,5-difluorophenyl)-1,2,4-triazol-3-yl]-4-methyl-6-[4-(oxetan-3-yl)piperazin-1-yl]pyridin-2-amine]	positive effect	positive effect	1 to 10	10 to 100			effect (new myelin generated compared to control) ([1]; 20 mpk): positive effect; effect (new myelin generated compared to control) ([1]; 40 mpk): positive effect
Cc1cc(Nc2ncn(-c3cc(F)cc(F)c3)n2)cc(N2CCN(C3COC3)CC2)c1 [Compound 33, 1-(3,5-difluorophenyl)-N-[3-methyl-5-[4-(oxetan-3-yl)piperazin-1-yl]phenyl]-1,2,4-triazol-3-amine]	positive effect		100 to 1000	≤ 1			effect (new myelin generated compared to control) ([1]; 10 mpk): positive effect; effect (new myelin generated compared to control) ([1]; 25 mpk): positive effect; effect (new myelin generated compared to control) ([1]; 50 mpk): positive effect
Cc1cc(Nc2ncn(-c3cccc(F)c3)n2)cc(N2CCN(C3COC3)CC2)c1 [Compound 406, 1-(3-fluorophenyl)-N-[3-methyl-5-[4-(oxetan-3-yl)piperazin-1-yl]phenyl]-1,2,4-triazol-3-amine]	positive effect				1000 to 10000	≤ 1	effect (new myelin generated compared to control) ([1]; 25 mpk): positive effect; effect (new myelin generated compared to control) ([1]; 50 mpk): positive effect
Cc1cc(Nc2ncn(-c3cc(F)cc(F)c3)n2)c(F)c(N2CCN(C3COC3)CC2)c1 [Compound 691, 1-(3,5-Difluorophenyl)-N-(2-fluoro-5-methyl-3-(4-(oxetan-3-yl)piperazin-1-yl)phenyl)-1H-1,2,4-triazol-3-amine]	positive effect				10 to 100	10 to 100	effect (new myelin generated compared to control) ([1]; 8 mpk): positive effect; effect (new myelin generated compared to control) ([1]; 10 mpk): positive effect; effect (new myelin generated compared to control) ([1]; 20 mpk): positive effect
Cc1cc(Nc2ncn(-c3cc(F)cc(F)c3)n2)cc(N2CCN(C3(C)COC3)CC2)c1 [Compound 215, 1-(3,5-difluorophenyl)-N-[3-methyl-5-[4-(3-methyloxetan-3-yl)piperazin-1-yl]phenyl]-1,2,4-triazol-3-amine]	positive effect	positive effect	10 to 100	10 to 100			effect (new myelin generated compared to control) ([1]; 90 mpk): positive effect
CCc1cc(Nc2ncn(-c3cnccn3)n2)cc(N2CCN(C3COC3)CC2)c1 [Compound 48, N-[3-ethyl-5-[4-(oxetan-3-yl)piperazin-1-yl]phenyl]-1-pyrazin-2-yl-1,2,4-triazol-3-amine]	positive effect	positive effect	100 to 1000	100 to 1000			effect (new myelin generated compared to control) ([1]; 50 mpk): positive effect; effect (new myelin generated compared to control) ([1]; 100 mpk): positive effect
Fc1cc(F)cc(-n2cnc(Nc3cc(C(F)F)cc(N4CCN(C5COC5)CC4)n3)n2)c1 [Compound 512, 4-(difluoromethyl)-N-[1-(3,5-difluorophenyl)-1,2,4-triazol-3-yl]-6-[4-(oxetan-3-yl)piperazin-1-yl]pyridin-2-amine]	positive effect				100 to 1000	100 to 1000	effect (new myelin generated compared to control) ([1]; 50 mpk): positive effect
Cc1cc(Nc2ncn(-c3cnccn3)n2)cc(N2CCN(C3COC3)CC2)c1 [Compound 195, N-[3-methyl-5-[4-(oxetan-3-yl)piperazin-1-yl]phenyl]-1-pyrazin-2-yl-1,2,4-triazol-3-amine]	positive effect		100 to 1000	100 to 1000			effect (new myelin generated compared to control) ([1]; 60 mpk): positive effect; effect (new myelin generated compared to control) ([1]; 100 mpk): positive effect
Cc1cc(Nc2ncn(-c3ccccc3)n2)cc(N2CCN3CCC[C@@H]3C2)c1 [Compound 157, N-[3-[(8aR)-3,4,6,7,8,8a-hexahydro-1H-pyrrolo[1,2-a]pyrazin-2-yl]-5-methyl-phenyl]-1-phenyl-1,2,4-triazol-3-amine]			1000 to 10000	1000 to 10000			
Cc1cc(Nc2ncn(-c3cc(F)c(F)cc3F)n2)cc(N2CCN(C3COC3)CC2)c1 [Compound 413, N-[3-methyl-5-[4-(oxetan-3-yl)piperazin-1-yl]phenyl]-1-(2,4,5-trifluorophenyl)-1,2,4-triazol-3-amine]					≤ 1	100 to 1000	
Cc1cc(Nc2ncn(-c3cc(F)cc(F)c3)n2)nc(N2CCN(C)CC2)c1 [Compound 731, N-[1-(3,5-difluorophenyl)-1,2,4-triazol-3-yl]-4-methyl-6-(4-methylpiperazin-1-yl)pyridin-2-amine]					10 to 100	≤ 1	
Cc1cc(Nc2ncn(-c3cc(F)cc(F)c3)n2)cc([C@H]2CCN(C3COC3)C[C@@H]2O)c1 (racemic) [Compound 282, (3R,4R)-4-[3-[[1-(3,5-difluorophenyl)-1,2,4-triazol-3-yl]amino]-5-methyl-phenyl]-1-(oxetan-3-yl)piperidin-3-ol; (3S,4S)-4-[3-[[1-(3,5-difluorophenyl)-1,2,4-triazol-3-yl]amino]-5-methyl-phenyl]-1-(oxetan-3-yl)piperidin-3-ol]			10 to 100	10 to 100			
